This note sets out measurements from patent US20230348419A1, “BIAMINOQUINOLINES AND NANOFORMULATIONS FOR CANCER TREATMENT” (The Regents of the University of California, priority 2019, published 2023).

Series [1] in a line: Drug loading using BAQ13 NPs. The series is classed as physicochemical. The conditions noted are these: for PDI / Size/diameter: BAQ13 NPs loaded with the drug or dye; for Encapsulation efficiency / Drug-loading content: drug or dye loaded in BAQ13 NPs; for Drug-loading content: mass ratio. On the procedure:
(§1) Preparation and characterization of BAQ ONNs. NPs were prepared through the re-precipitation method. BAQ derivatives in methanol were added dropwise into MilliQ water while stirring for 5 min (volume ratio, 1:10), and then homogenous NPs were obtained after rotary evaporation (40° C., 20 min), followed by the characterization with Zetasizer Nano ZS (Malvern). The TEM samples were prepared by dropping 0.5 mM NPs on carbon square mesh and dried naturally, which were then observed under the Talos L120C TEM (FEI) at an accelerating voltage of 80 kV. To determine the drug content in nanoformulations, the prepared drug-loaded NPs were cut off by centrifugal filter (ultracel-10 kDa, Millipore), and the absorbance of filtrate (diluted with DMSO, 1:10, volume ratio) was measured for calculation of drug concentrations.
Next investigation was whether liposome-like BAQ ONNs can encapsulate additional agents. Upon nanoprecipitation of BAQ13 and various agents, homogeneous NPs with monomodal size distributions spontaneously formed (Table 2 and FIG. 9G).

Series [2] has as its system HT29. Briefly: MTS cell viability assay. It is filed as cell-based. The conditions noted are these: read-out: IC50 (μM) in the 24 h treatment HT29. On the procedure: (§2) Cell line and cell culture. The human pancreatic cancer cell lines (MIA PaCa-2, BXPC3, and PANC-1) were originally purchased from ATCC and were kindly provided by Dr. Shiro Urayama's Lab. HT29, HCT116, H460, MCF7, NIH/3T3, and IMR-90 cell lines were purchased from ATCC. Bone marrow cells were collected from the leg bone marrows of FVB/N mice. All the cells were cultured at 37° C. in a humidified atmosphere of 5% CO2/95% air using the corresponding medium supplemented with 10% fetal bovine serum, […] according to ATCC protocol. All the cell lines have been tested for mycoplasma contamination routinely.
(§3) Cell viability, cell growth and colony formation. Cell viability was assessed by the MTS assay. Briefly, cells in 96-well plates (4,000 cell per well) were treated as indicated, followed by the incubation with MTS regents for 4 h. OD values (490 nm) were determined via a microplate reader. Results were shown as the average cell viability calculated from the formula of [(ODtreat−ODblank)/(ODcontrol−ODblank)×100%]. Drug combination data were analyzed by Combenefit 2.02. In cell growth assay, cells in 6-well plates (50,000 cell per well) were treated as indicated and were counted manually every 24 h. Colony formation assay was also performed on 6-well plates with a starting density of 1,000-2,000 cells per well. After incubated as indicated for 10-20 days, cells were washed with PBS and stained with the solution of crystal violet and methanol for 20 min.
Background: Tetrazolium assays rely on reduction of a dye to a coloured formazan, in cell work by metabolically active cells.

Series [3] concerns MCF-7. Briefly: MTS cell viability assay. The following applies: 24 h; read-out: IC50 (μM) in the 24 h treatment MCF-7. It is filed as cell-based. Here is the method:
as §2, §3

Series [4] has as its system H460. Briefly: MTS cell viability assay. It is filed as cell-based. The following applies: 24 h; read-out: IC50 (μM) in the 24 h treatment H460. On the procedure: as §2, §3
In series [5] the test system is PANC-1. Briefly: MTS cell viability assay. The series is classed as cell-based, human. The conditions noted are these: 24 h; read-out: IC50 (μM) in the 24 h treatment PANC-1. On the procedure: as §2, §3
Series [6] deals with MIA PaCa-2. Briefly: MTS cell viability assay. It is filed as cell-based, human. The following applies: read-out: IC50 (μM) in the 24 h treatment MIA PaCa-2. On the procedure:
as §2, §3

Series [7] relates to BXPC-3. Briefly: MTS cell viability assay. The series is classed as cell-based, human. The conditions noted are these: 24 h; read-out: IC50 (μM) in the 24 h treatment BXPC-3. Here is the method: as §2, §3
Series [8] can be described thus: Nanoparticle characterization of BAQ NPs (DLS, TEM). It is filed as physicochemical. The following applies: assembled NPs in water; for PDI / Size (nm): DLS. Here is the method:
as §1

Series [9] concerns three pancreatic cancer cell lines (MIA PaCa-2, BxPC-3, and PANC-1) and two colon cancer cell lines (HT29 and HCT116). Briefly: 48 h MTS assay on pancreatic and colon cancer cell lines. It is filed as cell-based. Here is the method:
as §3
In vitro antitumour activity of BAQ derivatives. To systematically investigate the antitumour effects in vitro, three pancreatic cancer cell lines (MIA PaCa-2, BxPC-3, and PANC-1) and two colon cancer cell lines (HT29 and HCT116) were selected for a 48 h MTS assay. […] The improved anticancer activity of BAQ ONNs is attributable to their multiple functions in inducing LMP, lysosomal dysfunction and autophagy inhibition in cancer cells; these effects are considered to be important triggers of apoptosis. To examine the proapoptotic effects of BAQ ONNs, apoptosis signals in MIA PaCa-2 and HT29 cells was subsequently detected. […] Lys05, the control, increased apoptotic signals in a concentration-dependent manner, but its effect at a high concentration close to the IC50 was still milder than those of the low concentrations of BAQ ONNs.

Series [10] has as its system various cancer cell lines. Briefly: Preliminary MTS screening, 24 h. The series is classed as cell-based. The following applies: 24 h MTS. Here is the method: To verify the therapeutic effects of BAQ12-BAQ18, a preliminary screening was conducted using an MTS assay on various cancer cell lines. […] This decrease was due to gradual declines in the detergence and H^+ buffering capacity of compounds. Based on the results above, BAQ12 and BAQ13 were then selected as representatives for construction of BAQ ONNs in the following studies.
as §3

Like-named read-outs stand apart in the source and are kept apart here.

For the molecule `Cc1sc2c(c1C)C(c1ccc(Cl)cc1)=N[C@@H](CC(=O)OC(C)(C)C)c1nnc(C)n1-2` [JQ1], in [1], the PDI is recorded as 0.048, the Size/diameter turned out to be 110 nm, the Encapsulation efficiency is 92% and the Drug-loading content was found to be 50%.
For the molecule `COc1cc([C@@H]2c3cc4c(cc3[C@@H](O[C@@H]3O[C@@H]5CO[C@@H](C)O[C@H]5[C@H](O)[C@H]3O)[C@H]3COC(=O)[C@H]23)OCO4)cc(OC)c1O` [Etoposide], in series [1], the PDI was 0.104, the Size/diameter came out at 69 nm, the Encapsulation efficiency stood at 86% and the Drug-loading content was 50%.
`CCCCCCCCCCCCN(CCNc1ccnc2cc(Cl)ccc12)CCNc1ccnc2cc(Cl)ccc12` [BAQ12]: in series [2] (24 h), the concentration for half-maximal inhibition (IC50) (commonly the concentration that inhibits the measured activity by half) is 3.5 ± 1.2 µM. Further, in series [3], the IC50 worked out at 3.1 ± 0.1 µM. In [4], the concentration for half-maximal inhibition (IC50) turned out to be 2.7 ± 0.5 µM. Besides, in [5], the half-maximal inhibitory concentration (IC50) was found to be 4.5 ± 0.9 µM. The half-maximal inhibitory concentration (IC50) in [6] (24 h) was 4.1 ± 0.8 µM. The half-maximal inhibitory concentration (IC50) in [7] came out at 2.9 ± 0.6 µM. Further, in [8], the “Zeta Potential (mV)” value was 36.4 ± 1.5 mV, the PDI was determined as 0.069 and the “Size (nm)” value was determined as 102.5 ± 3.1 nm. Further, in [9], the “effect alone versus combination treatment with Lys05 and MSDH” value is “more effective than combination treatment with Lys05 and MSDH”; the “fold more potent than HCQ” value was 30 fold. For the same molecule, in [10], the “fold higher potency than HCQ” value was approximately 20 fold, the “fold higher potency than Lys05” value is approximately 3 fold and the “fold higher potency than MSDH” value is given as approximately 10 fold.
On to `CCCCCCCCCCCCCCCCCCN(CCNc1ccnc2cc(Cl)ccc12)CCNc1ccnc2cc(Cl)ccc12` [BAQ18], for which the IC50 in series [2] (24 h) is more than 100 µM; in series [3] it was more than 90 µM; in [4], more than 90 µM; in [5], more than 90 µM; in [6] (24 h), more than 90 µM; in series [7], more than 90 µM. For the same molecule, in series [8], the “Zeta Potential (mV)” value amounted to 39.5 ± 0.8 mV. Further, in [8], the PDI came out at 0.093. For the same molecule, the “Size (nm)” value in series [8] is listed as 96.7 ± 1.6 nm.
Regarding `CC1(C)CCC2=C(O1)c1ccccc1C(=O)C2=O` [β-lapachone], in series [1], the PDI was 0.047, the Size/diameter is on record as 128 nm, the Encapsulation efficiency is 95% and the Drug-loading content is on record as 33%.
Consider `CCCCCCCCCCCCCCCN(CCNc1ccnc2cc(Cl)ccc12)CCNc1ccnc2cc(Cl)ccc12` [BAQ15], for which the IC50 in [2] (24 h) is 16.1 ± 2.5 µM; in series [3], more than 60 µM; in series [4], 24.1 ± 0.4 µM; in series [5], 34.5 ± 3.9 µM; in series [6] (24 h), 42 ± 11.7 µM; in [7] it was 17.2 ± 2 µM. In [8], the “Zeta Potential (mV)” value was found to be 38.0 ± 2.9 mV. Further, the PDI in [8] amounted to 0.086. In addition, the “Size (nm)” value in series [8] was determined as 107.3 ± 2.6 nm.
For the molecule `CC[C@]1(O)C[C@@H]2CN(CCc3c([nH]c4ccccc34)[C@@](C(=O)OC)(c3cc4c(cc3OC)N(C)[C@H]3[C@@](O)(C(=O)OC)[C@H](OC(C)=O)[C@]5(CC)C=CCN6CC[C@]43[C@@H]65)C2)C1` [Vinblastine], in [1], the PDI was 0.133, the Size/diameter came to 60 nm, the Encapsulation efficiency stood at 95% and the Drug-loading content is 50%.
As for `CC(C)C[C@H](NC(=O)[C@H](Cc1ccccc1)NC(=O)c1cnccn1)B(O)O` [Bortezomib], in series [1], the PDI is recorded as 0.09, the Size/diameter was 92 nm, the Encapsulation efficiency is reported as 89% and the Drug-loading content came out at 50%.
As for `COc1ccc(-c2nc(-c3cc(C(F)(F)F)cc(C(F)(F)F)c3)n(Cc3ccc(C(N)=O)cc3)c2-c2ccc(OC)cc2)cc1` [Apoptozole], in series [1], the PDI worked out at 0.099, the Size/diameter was 85 nm, the Encapsulation efficiency stood at 93% and the Drug-loading content is recorded as 50%.
On to `CCCCCCCCCCCCCCN(CCNc1ccnc2cc(Cl)ccc12)CCNc1ccnc2cc(Cl)ccc12` [BAQ14], for which the half-maximal inhibitory concentration (IC50) in series [2] (24 h) is 9.6 ± 2 µM; in series [3] it was 28.5 ± 3.5 µM; in [4] it was 24 ± 0.3 µM; in series [5] it was 10.4 ± 1.8 µM; in series [6] (24 h), 16 ± 1.8 µM; in series [7], 7.5 ± 0.7 µM. Further, in [8], the “Zeta Potential (mV)” value amounted to 39.1 ± 0.4 mV. The molecule further gave a PDI in series [8] of 0.069. Also, in series [8], the “Size (nm)” value is 137.9 ± 4.6 nm.
Consider `CCN(CCO)CCCC(C)Nc1ccnc2cc(Cl)ccc12` (centres unmarked) [HCQ, hydroxychloroquine], for which the half-maximal inhibitory concentration (IC50) was more than 75 µM in [2] (Homo sapiens, HT-29, 24 h) and 79.6 ± 8.5 µM in [6] (Homo sapiens, MIA PaCa-2, 24 h).
For `CCCCCCCCCCCCCCCCN(CCNc1ccnc2cc(Cl)ccc12)CCNc1ccnc2cc(Cl)ccc12` [BAQ16], the IC50 in series [2] (24 h) was more than 80 µM; in series [3], more than 90 µM; in [4], more than 90 µM; in series [5] it was more than 90 µM; in series [6] (24 h), 60.7 ± 13.9 µM; in series [7], 27.6 ± 2.8 µM. For the same molecule, in series [8], the “Zeta Potential (mV)” value is on record as 40.4 ± 0.5 mV. Moreover, the PDI in series [8] came to 0.082. In addition, the “Size (nm)” value in series [8] came to 119.7 ± 2.1 nm.
In the case of `Nc1cccc2c1CN(C1CCC(=O)NC1=O)C2=O` (centres unmarked) [Lenalidomide], in series [1], the PDI amounted to 0.069, the Size/diameter was determined as 85 nm, the Encapsulation efficiency turned out to be 88% and the Drug-loading content was 50%.
